Data set [1] in a line: Antioxidant activity assessed as trolox equivalent of […]-induced radical scavenging activity at 1 to 10 uM preincubated for 15 mins followed by AAPH addition measured every minute for 120 mins by ORAC fluorescein assay. In kind it is functional.
The target of data set [2] is T1, Amine oxidase [flavin-containing] A (Homo sapiens, UniProt P21397).
T1 sequence (P21397 whole entry): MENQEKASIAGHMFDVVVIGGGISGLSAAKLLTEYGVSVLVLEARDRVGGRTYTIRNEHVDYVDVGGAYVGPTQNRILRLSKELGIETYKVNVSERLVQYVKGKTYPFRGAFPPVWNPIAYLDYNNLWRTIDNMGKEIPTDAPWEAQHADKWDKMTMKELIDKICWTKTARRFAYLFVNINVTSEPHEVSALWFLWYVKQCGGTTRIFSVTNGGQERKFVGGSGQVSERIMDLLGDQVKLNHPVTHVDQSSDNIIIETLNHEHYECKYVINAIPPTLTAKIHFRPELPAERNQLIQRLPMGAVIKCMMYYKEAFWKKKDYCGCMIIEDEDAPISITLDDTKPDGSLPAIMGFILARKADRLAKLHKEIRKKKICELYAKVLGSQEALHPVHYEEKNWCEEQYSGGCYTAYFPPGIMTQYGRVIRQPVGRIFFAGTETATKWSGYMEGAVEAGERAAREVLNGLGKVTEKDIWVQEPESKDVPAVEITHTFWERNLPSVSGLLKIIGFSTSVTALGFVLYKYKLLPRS
Description: Inhibition of recombinant human MAO-A expressed in baculovirus infected BTI insect cells using p-tyramine as substrate pretreated for 15 mins followed by substrate addition after 20 mins by Amplex red reagent based fluorimetric method.

In data set [3] the target is T2, Amine oxidase [flavin-containing] B (Homo sapiens, UniProt P27338).
T2 sequence (P27338 whole entry): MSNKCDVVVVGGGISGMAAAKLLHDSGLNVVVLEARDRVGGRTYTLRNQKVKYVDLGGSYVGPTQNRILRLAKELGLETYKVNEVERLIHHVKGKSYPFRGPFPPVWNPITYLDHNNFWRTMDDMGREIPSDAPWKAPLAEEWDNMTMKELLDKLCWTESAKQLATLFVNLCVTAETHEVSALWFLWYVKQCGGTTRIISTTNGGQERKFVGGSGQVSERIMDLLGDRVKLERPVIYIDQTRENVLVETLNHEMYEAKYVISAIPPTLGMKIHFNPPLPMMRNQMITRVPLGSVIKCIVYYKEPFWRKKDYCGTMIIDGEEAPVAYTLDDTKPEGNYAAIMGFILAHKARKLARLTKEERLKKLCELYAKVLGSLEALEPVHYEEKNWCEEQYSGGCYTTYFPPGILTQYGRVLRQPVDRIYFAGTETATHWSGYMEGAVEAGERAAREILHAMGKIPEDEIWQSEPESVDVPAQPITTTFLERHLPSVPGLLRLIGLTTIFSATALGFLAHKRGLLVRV
In words: biochemical. In kind it is cell-based.
Description: Inhibition of recombinant human MAO-B expressed in baculovirus infected BTI insect cells using p-tyramine as substrate pretreated for 15 mins followed by substrate addition after 20 mins by Amplex red reagent based fluorimetric method

For a further data set, the species on record is Homo sapiens. Description: Selectivity index, ratio of IC50 for recombinant human MAO-A expressed in baculovirus infected BTI insect cells to IC50 for recombinant human MAO-B expressed in baculovirus infected BTI insect cells.
Data set [4] has as its target Amyloid-beta precursor protein (Homo sapiens) (UniProt P05067). In words: Inhibition of HFIP-pretreated amyloid beta (1 to 42) (unknown origin) self-induced aggregation at 20 uM after 46 to 48 hrs by thioflavin-T fluorescence assay relative to control.
For data set [5] the target is unchanged. In words: Potency index, ratio of compound effect to curcumin effect for inhibition of HFIP-pretreated amyloid beta (1 to 42) (unknown origin) self-induced aggregation at 20 uM.
The subject of data set [6] is PC-12. In words: Cytotoxicity against rat PC12 cells at 20 uM after 24 hrs by MTT assay. In kind it is cell-based. The settings on record: pc-12, 24 h.
Data set [7] in a line: Metal chelating activity assessed as inhibition of Cu2+-induced amyloid beta (1 to 42 residues) aggregation at 50 uM after 24 hrs by thioflavin-T fluorescence assay (reference value: 142%).
A short description of data set [8]: Metal chelating activity assessed as inhibition of Cu2+-induced amyloid beta (1 to 42 residues) aggregation by measuring reduction in amyloid fibrils at 50 uM […] by uranyl acetate staining based transmission electron microscopic analysis.
Data set [9] can be described thus: Metal chelating activity of the compound assessed as formation of Cu2+-compound complex at 50 uM after 30 mins by UV-vis spectrophotometric method.
The nature of data set [10]: Metal chelating activity of the compound assessed as formation of ferric-compound complex at 50 uM after 30 mins by UV-vis spectrophotometric method.
Data set [11] in a line: Metal chelating activity of the compound assessed as formation of ferrous-compound complex at 50 uM after 30 mins by UV-vis spectrophotometric method.
The nature of data set [12]: Metal chelating activity of the compound assessed as formation of Cu2+-compound complex at 50 uM after 20 mins by fluorescence emission spectral analysis.
A short description of data set [13]: Metal chelating activity of the compound assessed as formation of ferric-compound complex at 50 uM after 20 mins by fluorescence emission spectral analysis.
Data set [14] can be described thus: Metal chelating activity of the compound assessed as formation of ferrous-compound complex at 50 uM after 20 mins by fluorescence emission spectral analysis.
Data set [15] can be described thus: Metal chelating activity of the compound assessed as formation of zinc-compound complex at 50 uM after 20 mins by fluorescence emission spectral analysis.
A short description of data set [16]: Metal chelating activity assessed as mole fraction of compound required to show 1:1 stoichiometry for Cu2+-compound complex by Job's plot method.
Data set [17] relates to PC-12. Description: Neuroprotective activity against H2O2-induced cell death in rat PC12 cells assessed as increase in cell viability at 1 to 5 uM pretreated for 24 hrs followed by H2O2 induction after 24 hrs by MTT assay. In kind it is functional, cell-based.
The test system of data set [18] is PC-12. Description: Neuroprotective activity against H2O2-induced cell death in rat PC12 cells assessed as increase in cell viability at 10 uM pretreated for 24 hrs followed by H2O2 induction after 24 hrs by MTT assay. The data set is classed as functional, cell-based. In general terms: Tetrazolium assays rely on reduction of a dye to a coloured formazan, in cell work by metabolically active cells.

Data set [19] deals with PC-12. Description: Neuroprotective activity against H2O2-induced cell death in rat PC12 cells assessed as increase in cell viability at 20 uM pretreated for 24 hrs followed by H2O2 induction after 24 hrs by MTT assay. In kind it is functional, cell-based.
The test system of data set [20] is PC-12. Description: Neuroprotective activity against H2O2-induced oxidative stress in rat PC12 cells assessed as reduction in intracellular reactive oxygen species level after 24 hrs by DCFH-DA probe based flow cytometric analysis. In kind it is functional, cell-based. (In general: In flow cytometry, cells or beads pass a laser one at a time.)
A further data set can be described thus: physchem. The settings on record: PAMPA. In general terms: The PAMPA barrier holds no transporters, so it reflects passive diffusion.

pIC50: −log10 of the molar value. Calls of active or inactive are those of the source. The rule behind the calls is not given here.

Chain of Amyloid-beta precursor protein (Homo sapiens) (P05067 whole entry): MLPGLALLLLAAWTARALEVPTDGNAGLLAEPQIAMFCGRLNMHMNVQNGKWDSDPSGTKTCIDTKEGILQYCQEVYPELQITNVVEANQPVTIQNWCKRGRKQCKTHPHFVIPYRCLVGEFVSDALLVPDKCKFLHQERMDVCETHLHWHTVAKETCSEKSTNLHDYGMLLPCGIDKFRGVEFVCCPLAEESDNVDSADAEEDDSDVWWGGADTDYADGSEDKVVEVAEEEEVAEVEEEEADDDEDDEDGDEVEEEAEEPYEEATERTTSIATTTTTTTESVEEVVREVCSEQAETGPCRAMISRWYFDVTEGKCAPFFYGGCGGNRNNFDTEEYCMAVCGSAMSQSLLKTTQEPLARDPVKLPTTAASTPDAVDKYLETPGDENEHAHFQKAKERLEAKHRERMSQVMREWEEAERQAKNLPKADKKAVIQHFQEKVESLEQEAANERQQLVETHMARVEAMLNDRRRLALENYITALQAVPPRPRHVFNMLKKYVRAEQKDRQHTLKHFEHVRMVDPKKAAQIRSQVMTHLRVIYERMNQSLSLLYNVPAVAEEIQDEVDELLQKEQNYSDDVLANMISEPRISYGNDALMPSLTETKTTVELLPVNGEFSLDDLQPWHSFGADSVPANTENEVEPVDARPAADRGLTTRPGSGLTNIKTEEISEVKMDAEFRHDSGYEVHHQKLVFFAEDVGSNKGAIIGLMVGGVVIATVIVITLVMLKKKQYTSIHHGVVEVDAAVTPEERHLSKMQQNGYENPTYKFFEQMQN

The pIC50 is the negative decadic logarithm of the IC50, by convention in mol/L. A word on the inhibition: it is how much of the control response was suppressed. For the molecule `Cc1ccc(O)c(/N=C/c2coc3ccc(Br)cc3c2=O)c1`, the figures for the Activity (in data set [1]; with PC-12 [6]) were 0.784 equiv and “Non-Toxic”, respectively. The pIC50 in data set [2] is 5.15; in data set [3], 5.95. Also, in the data set filed under Homo sapiens, the Ratio IC50 was determined as 6.38. In addition, the inhibition in [4] is 89.5%. Also, the Ratio in [5] was found to be 1.9.
What is called Papp is a coefficient for how fast a substance crosses the barrier. A higher Papp goes with fast passage. For the molecule `Cc1ccc(O)c(/N=C/c2coc3ccc(C)cc3c2=O)c1`, the Activity was 3.62 equiv in data set [1], 0.55 molar ratio in data set [16], “Non-Toxic” in the data set on PC-12 [6] and “Dose-dependent effect” with PC-12 [20]. Also, the results for the pIC50 in data set [2] and in data set [3] were 5.29 and 6.09, respectively. Also, the Ratio IC50 in the data set filed under Homo sapiens worked out at 6.21. Further, the inhibition came to 75.1% in data set [4] and 60.3% in data set [7]. Besides, the inhibition entry in data set [8] was “Active”. The result in [9], in data set [10], in [11], in [12], in data set [13] and in data set [14] was Active. Also, the result (in data set [15]; in the data set on PC-12 [17]) was Active. In addition, the result in the data set with PC-12 [18] and in the data set on PC-12 [19] was inactive. Also, the Papp at 16 h in the data set “physchem” stood at 4.94 ×10⁻⁶ cm/s.

Values taken from ChEMBL document CHEMBL4052647, “Synthesis and pharmacological evaluation of novel chromone derivatives as balanced multifunctional agents against Alzheimer's disease” (Bioorg Med Chem, 2017).
